From patent US20240358668A1, “METHODS AND CO[…] AM[…] CARD[…] USING (R)-2-AMINO-3-PH[…]” (AXSOME THERAPEUTICS, INC., priority 2021, published 2024)

System: participants with narcolepsy or OSA
Test: 1-year OLE study: clinical laboratory assessments (total cholesterol, triglycerides, glucose), OLE baseline to week 40
Type: in vivo, human
Procedure: A 1-year open-label extension (OLE) study was performed with 374 participants to examined whether clinically significant weight loss (≥5%) in this population had favorable effects on biomarkers of cardiovascular risk compared to no such weight loss. The study measured changes in weight and BP (parent study baseline to OLE week 40) and clinical laboratory assessments (OLE baseline to week 40) in participants with narcolepsy (n=124) or OSA (n=250) who received solriamfetol at doses of 75, 150, or 300 mg/d.
We evaluated changes in weight and BP (parent study baseline to OLE week 40) and clinical laboratory assessments (OLE baseline to week 40) in participants with narcolepsy (n=124) or OSA (n=250) from the OLE study.

[1] = Weight loss <5% at Week 40, 75 mg/d
[2] = Weight loss <5% at Week 40, 150 mg/d
[3] = Weight loss <5% at Week 40, 300 mg/d
[4] = Weight loss <5% at Week 40, all doses
[5] = Weight loss ≥5% at Week 40, 75 mg/d
[6] = Weight loss ≥5% at Week 40, 150 mg/d
[7] = Weight loss ≥5% at Week 40, 300 mg/d
[8] = Weight loss ≥5% at Week 40, all doses

`NC(=O)OC[C@H](N)Cc1ccccc1` [Solriamfetol, (R)-2-amino-3-phenylpropyl carbamate] was tested, and the “Glucose Change - Wk 40, Mean (SD)” value [1] was −0.1 (3.0) mmol/L, the “Glucose Change - Wk 40, Median” value [1] was 0.2 mmol/L and the “Glucose category High, Week 40” value [1] was 16(76.2) n (%). For the same compound, the “Glucose category Low, Week 40” value [1] was 0 n (%), the “Glucose category Normal, Week 40” value [1] was 5(23.8) n (%) and the “TC Change - Wk 40, Mean (SD)” value [1] was −0.1 (0.7) mmol/L. The “TC Change - Wk 40, Median” value [1] was 0.2 mmol/L, the “TG Change - Wk 40, Mean (SD)” value [1] was 0.2 (0.9) mmol/L and the “TG Change - Wk 40, Median” value [1] was -0.1 mmol/L. For the same compound, the “Total cholesterol category High, Week 40” value [1] was 8(38.1) n (%), the “Total cholesterol category Low, Week 40” value [1] was 0 n (%) and the “Total cholesterol category Normal, Week 40” value [1] was 13(61.9) n (%). For the same compound, the “Triglycerides category High, Week 40” value [1] was 11(52.4) n (%), the “Triglycerides category Low, Week 40” value [1] was 0 n (%) and the “Triglycerides category Normal, Week 40” value [1] was 10(47.6) n (%). For the same compound, the “Glucose Change - Wk 40, Mean (SD)” value [2] was −0.1 (1.1) mmol/L, the “Glucose Change - Wk 40, Median” value [2] was -0.1 mmol/L and the “Glucose category High, Week 40” value [2] was 47(46.1) n (%). For the same compound, the “Glucose category Low, Week 40” value [2] was 0 n (%), the “Glucose category Normal, Week 40” value [2] was 55(53.9) n (%) and the “TC Change - Wk 40, Mean (SD)” value [2] was 0.1 (0.7) mmol/L. For the same compound, the “TC Change - Wk 40, Median” value [2] was 0.1 mmol/L, the “TG Change - Wk 40, Mean (SD)” value [2] was −0.1 (1.0) mmol/L and the “TG Change - Wk 40, Median” value [2] was -0.0 mmol/L. For the same compound, the “Total cholesterol category High, Week 40” value [2] was 46(44.2) n (%), the “Total cholesterol category Low, Week 40” value [2] was 0 n (%) and the “Total cholesterol category Normal, Week 40” value [2] was 58(55.8) n (%). The “Triglycerides category High, Week 40” value [2] was 39(37.5) n (%), the “Triglycerides category Low, Week 40” value [2] was 0 n (%) and the “Triglycerides category Normal, Week 40” value [2] was 65(62.5) n (%). The “Glucose Change - Wk 40, Mean (SD)” value [3] was −0.1 (1.9) mmol/L, the “Glucose Change - Wk 40, Median” value [3] was 0.0 mmol/L and the “Glucose category High, Week 40” value [3] was 69(48.9) n (%). The “Glucose category Low, Week 40” value [3] was 0 n (%), the “Glucose category Normal, Week 40” value [3] was 72(51.1) n (%) and the “TC Change - Wk 40, Mean (SD)” value [3] was 0.1 (0.6) mmol/L. For the same compound, the “TC Change - Wk 40, Median” value [3] was 0.100 mmol/L, the “TG Change - Wk 40, Mean (SD)” value [3] was 0.0 (0.7) mmol/L and the “TG Change - Wk 40, Median” value [3] was -0.1 mmol/L. The “Total cholesterol category High, Week 40” value [3] was 46(31.9) n (%), the “Total cholesterol category Low, Week 40” value [3] was 0 n (%) and the “Total cholesterol category Normal, Week 40” value [3] was 98(68.1) n (%). For the same compound, the “Triglycerides category High, Week 40” value [3] was 50(34.7) n (%), the “Triglycerides category Low, Week 40” value [3] was 0 n (%) and the “Triglycerides category Normal, Week 40” value [3] was 94(65.3) n (%). For the same compound, the “Glucose Change - Wk 40, Mean (SD)” value [4] was −0.1 (1.8) mmol/L, the “Glucose Change - Wk 40, Median” value [4] was -0.0 mmol/L and the “Glucose category High, Week 40” value [4] was 132(50.0) n (%). For the same compound, the “Glucose category Low, Week 40” value [4] was 0 n (%), the “Glucose category Normal, Week 40” value [4] was 132(50.0) n (%) and the “TC Change - Wk 40, Mean (SD)” value [4] was 0.1 (0.6) mmol/L. The “TC Change - Wk 40, Median” value [4] was 0.100 mmol/L, the “TG Change - Wk 40, Mean (SD)” value [4] was −0.0 (0.9) mmol/L and the “TG Change - Wk 40, Median” value [4] was -0.0 mmol/L. The “Total cholesterol category High, Week 40” value [4] was 100(37.2) n (%), the “Total cholesterol category Low, Week 40” value [4] was 0 n (%) and the “Total cholesterol category Normal, Week 40” value [4] was 169(62.8) n (%). For the same compound, the “Triglycerides category High, Week 40” value [4] was 100(37.2) n (%), the “Triglycerides category Low, Week 40” value [4] was 0 n (%) and the “Triglycerides category Normal, Week 40” value [4] was 169(62.8) n (%). For the same compound, the “Glucose Change - Wk 40, Mean (SD)” value [5] was -0.5 mmol/L, the “Glucose Change - Wk 40, Median” value [5] was -0.5 mmol/L and the “Glucose category High, Week 40” value [5] was 1(100) n (%). For the same compound, the “Glucose category Low, Week 40” value [5] was 0 n (%), the “Glucose category Normal, Week 40” value [5] was 0 n (%) and the “TC Change - Wk 40, Mean (SD)” value [5] was 1.1 mmol/L. For the same compound, the “TC Change - Wk 40, Median” value [5] was 1.1 mmol/L, the “TG Change - Wk 40, Mean (SD)” value [5] was 0.3 mmol/L and the “TG Change - Wk 40, Median” value [5] was 0.3 mmol/L. The “Total cholesterol category High, Week 40” value [5] was 0 n (%), the “Total cholesterol category Low, Week 40” value [5] was 0 n (%) and the “Total cholesterol category Normal, Week 40” value [5] was 1(100) n (%). For the same compound, the “Triglycerides category High, Week 40” value [5] was 0 n (%), the “Triglycerides category Low, Week 40” value [5] was 0 n (%) and the “Triglycerides category Normal, Week 40” value [5] was 1(100) n (%). The “Glucose Change - Wk 40, Mean (SD)” value [6] was −0.2 (0.8) mmol/L, the “Glucose Change - Wk 40, Median” value [6] was -0.2 mmol/L and the “Glucose category High, Week 40” value [6] was 7(31.8) n (%). For the same compound, the “Glucose category Low, Week 40” value [6] was 0 n (%), the “Glucose category Normal, Week 40” value [6] was 15(68.2) n (%) and the “TC Change - Wk 40, Mean (SD)” value [6] was 0.2 (0.5) mmol/L. The “TC Change - Wk 40, Median” value [6] was 0.2 mmol/L, the “TG Change - Wk 40, Mean (SD)” value [6] was −0.1 (0.4) mmol/L and the “TG Change - Wk 40, Median” value [6] was -0.2 mmol/L. For the same compound, the “Total cholesterol category High, Week 40” value [6] was 4(18.2) n (%), the “Total cholesterol category Low, Week 40” value [6] was 0 n (%) and the “Total cholesterol category Normal, Week 40” value [6] was 18(81.8) n (%). For the same compound, the “Triglycerides category High, Week 40” value [6] was 6(27.3) n (%), the “Triglycerides category Low, Week 40” value [6] was 0 n (%) and the “Triglycerides category Normal, Week 40” value [6] was 16(72.7) n (%). For the same compound, the “Glucose Change - Wk 40, Mean (SD)” value [7] was −0.2 (1.5) mmol/L, the “Glucose Change - Wk 40, Median” value [7] was -0.1 mmol/L and the “Glucose category High, Week 40” value [7] was 19(26.0) n (%). The “Glucose category Low, Week 40” value [7] was 0 n (%), the “Glucose category Normal, Week 40” value [7] was 54(74.0) n (%) and the “TC Change - Wk 40, Mean (SD)” value [7] was 0.2 (0.6) mmol/L. For the same compound, the “TC Change - Wk 40, Median” value [7] was 0.2 mmol/L, the “TG Change - Wk 40, Mean (SD)” value [7] was −0.3 (1.0) mmol/L and the “TG Change - Wk 40, Median” value [7] was -0.2 mmol/L. The “Total cholesterol category High, Week 40” value [7] was 18(24.7) n (%), the “Total cholesterol category Low, Week 40” value [7] was 0 n (%) and the “Total cholesterol category Normal, Week 40” value [7] was 55(75.3) n (%). The “Triglycerides category High, Week 40” value [7] was 15(20.5) n (%), the “Triglycerides category Low, Week 40” value [7] was 0 n (%) and the “Triglycerides category Normal, Week 40” value [7] was 58(79.5) n (%). For the same compound, the “Glucose Change - Wk 40, Mean (SD)” value [8] was −0.2 (1.4) mmol/L, the “Glucose Change - Wk 40, Median” value [8] was -0.1 mmol/L and the “Glucose category High, Week 40” value [8] was 27(28.1) n (%). The “Glucose category Low, Week 40” value [8] was 0 n (%), the “Glucose category Normal, Week 40” value [8] was 69(71.9) n (%) and the “TC Change - Wk 40, Mean (SD)” value [8] was 0.2 (0.6) mmol/L. The “TC Change - Wk 40, Median” value [8] was 0.2 mmol/L, the “TG Change - Wk 40, Mean (SD)” value [8] was −0.2 (0.9) mmol/L and the “TG Change - Wk 40, Median” value [8] was -0.2 mmol/L. The “Total cholesterol category High, Week 40” value [8] was 22(22.9) n (%), the “Total cholesterol category Low, Week 40” value [8] was 0 n (%) and the “Total cholesterol category Normal, Week 40” value [8] was 74(77.1) n (%). The “Triglycerides category High, Week 40” value [8] was 21(21.9) n (%), the “Triglycerides category Low, Week 40” value [8] was 0 n (%) and the “Triglycerides category Normal, Week 40” value [8] was 75(78.1) n (%). The “percentage of participants with high total cholesterol” value (participants with weight loss, week 40 (baseline 22.3%)) was 22.9%, the “percentage of participants with high triglycerides” value (participants with weight loss, week 40 (baseline 26.6%)) was 21.9% and the “percentage of participants with high serum glucose” value (participants with weight loss, week 40 (baseline 36.6%)) was 28.1%. The “percentage of participants with high total cholesterol” value (participants without weight loss, week 40 (baseline 32.7%)) was 37.2%, the “percentage of participants with high triglycerides” value (participants without weight loss, week 40 (baseline 37.1%)) was 37.2% and the “percentage of participants with high serum glucose” value (participants without weight loss, week 40 (baseline 43.3%)) was 50%.
